From patent publication US4812456A, “1-(N-(2-alkylthio-10H-phenothiazin-10-yl)alkyl)-4-benzoylpiperidines and pharmaceutical use” (Hoechst-Roussel Pharmaceuticals Inc., priority 1987, dated 1989)

What was measured:
mice [1] = assay: phenyl-p-quinone writhing assay in mice (analgesic activity, modified); type: in vivo, male mice (Charles River, CD-1); details: Mus musculus, sc, tested at peak time, estimated dose at which 50% inhibition of writhing is produced, computer linear regression
Description: The procedure employed to determine analgesic utility is a modification of the phenyl-p-quinone writhing assay in mice, a standard assay for analgesia (Proc. Soc. Exptl. Bio. Med., 95 729 (1957)]. In the modified procedure phenyl-p-benzoquinone (Eastman, 12.5 mg) is dissolved in 5 ml of 95% ethanol and the solution is diluted to a total volume of 100 ml with distilled water. The solution is administered to the subject mice […] at a dose of 10 ml per kg of body weight. A characteristic "writh", an inward rotation of one or more feet with twisting and turning of the trunk, drawing in of the abdominal wall, lordosis and arching of the back, is produced.
A total of 28 male mice (Charles River, CD-1), weighing 18 to 30 grams, are employed for a time response. The subject animals receive food and water ad libitum. Test compounds are dissolved in distilled water, or suspended in distilled water containing one drop of a suitable surfactant, such as Tween-80.
Four groups of five animals (20 animals) are given the test compound subcutaneously at 15, 30, 45 and 60 minutes prior to administration of the phenyl-p-quinone. Four control groups of 2 animals (8 animals) receive an equal volume of the vehicle. […] The number of writhes for each animal is recorded. […]

mice [2] = assay: climbing mice assay (apomorphine climbing, antipsychotic activity); type: in vivo, CK-1 male mice; details: Mus musculus, ip, compound 30 minutes prior to apomorphine 1.5 mg/kg subcutaneously, climbing scores at 10, 20 and 30 minutes, linear regression, read-out: Anti-Psychotic Activity (ED50)
Text: The subject CK-1 male mice (23-27 grams) are group-housed under standard laboratory conditions. The mice are individually placed in wire mesh stick cages (4"×4" by 10") and are allowed one hour for adaptation and exploration of the new environment.
Mice consistently climbing before the injection of apomorphine are discarded.
With full-developed apomorphine climbing, the animals are hanging onto the cage walls, rather motionless, over longer periods of time. By contrast, climbs due to mere motor stimulation usually last only a few seconds.

| Structure (SMILES) | ED50 (mice [1]) [mg/kg] | ED50 (mice [2]) [mg/kg] |
| --- | --- | --- |
| CSc1ccc2c(c1)N(CCCN1CCC(C(=O)c3ccc(F)cc3)CC1)c1ccccc1S2.O=C(O)/C=C/C(=O)O [4-(4-Fluorobenzoyl)-1-[3-(2-methylthio-10H-phenothiazin-10-yl)propyl]piperidine fumarate] | 6.1 | 1.4 |
| CC(C)=CCN1CCC2(C)c3cc(O)ccc3CC1C2C (stereo not shown) [Pentazocine] | 1.3 | – |
| CSc1ccc2c(c1)N(CCC1CCCCN1C)c1ccccc1S2 (stereo not shown) [Thioridazine] | – | 4.1 |
